Data: patent publication US7074789B2, “Kinase inhibitors” (Amgen Inc., priority 1999, dated 2006)

Legend:
Assay type in all cases: biochemical
Lck = target: T1, Lck (Homo sapiens, UniProt P06239); test: Kinase inhibition assay (33P transfer), Lck; conditions: Table 3, class symbols; read-out: Lck-1
T1 construct: Kinases are expressed as either kinase domains or full length constructs; made in house
Method in brief: (§1)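 Steps: express kinase as GST or polyHistidine fusion in E. coli or High Five cells; optionally co-express or mix with regulatory polypeptides; incubate with 33P-ATP and plate-attached poly(Glu,Tyr) 4:1 or poly(Arg,Ser) 3:1; wash with 0.5% phosphoric acid; count by liquid scintillation.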

Zap-70 = target: T2, Zap-70 (Homo sapiens, UniProt P43403); test: Kinase inhibition assay (33P transfer), Zap-70; conditions: Table 3, class symbols; read-out: Zap-1
T2 construct: Kinases are expressed as either kinase domains or full length constructs; made in house
T2 sequence (P43403 1-619): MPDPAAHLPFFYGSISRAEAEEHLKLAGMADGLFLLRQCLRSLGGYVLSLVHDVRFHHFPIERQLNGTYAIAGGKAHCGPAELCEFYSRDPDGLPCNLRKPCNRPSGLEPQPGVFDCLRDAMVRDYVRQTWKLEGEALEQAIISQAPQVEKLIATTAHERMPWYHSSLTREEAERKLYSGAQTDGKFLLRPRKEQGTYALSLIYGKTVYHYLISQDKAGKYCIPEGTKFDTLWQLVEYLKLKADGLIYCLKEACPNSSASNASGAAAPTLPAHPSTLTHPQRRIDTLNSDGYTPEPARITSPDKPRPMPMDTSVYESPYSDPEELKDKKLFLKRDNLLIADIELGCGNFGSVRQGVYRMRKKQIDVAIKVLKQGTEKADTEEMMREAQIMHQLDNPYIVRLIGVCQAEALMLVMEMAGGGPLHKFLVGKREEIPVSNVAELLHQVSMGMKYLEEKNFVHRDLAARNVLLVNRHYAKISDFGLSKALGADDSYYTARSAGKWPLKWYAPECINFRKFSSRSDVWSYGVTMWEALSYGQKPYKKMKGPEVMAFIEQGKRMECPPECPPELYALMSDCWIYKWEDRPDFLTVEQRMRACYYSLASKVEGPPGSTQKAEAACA
Method in brief: as §1

Itk = target: T3, Itk (Homo sapiens, UniProt Q08881); test: Kinase inhibition assay (33P transfer), Itk; conditions: Table 3, class symbols; read-out: Itk-1
T3 construct: Kinases are expressed as either kinase domains or full length constructs; made in house
T3 sequence (Q08881 1-620): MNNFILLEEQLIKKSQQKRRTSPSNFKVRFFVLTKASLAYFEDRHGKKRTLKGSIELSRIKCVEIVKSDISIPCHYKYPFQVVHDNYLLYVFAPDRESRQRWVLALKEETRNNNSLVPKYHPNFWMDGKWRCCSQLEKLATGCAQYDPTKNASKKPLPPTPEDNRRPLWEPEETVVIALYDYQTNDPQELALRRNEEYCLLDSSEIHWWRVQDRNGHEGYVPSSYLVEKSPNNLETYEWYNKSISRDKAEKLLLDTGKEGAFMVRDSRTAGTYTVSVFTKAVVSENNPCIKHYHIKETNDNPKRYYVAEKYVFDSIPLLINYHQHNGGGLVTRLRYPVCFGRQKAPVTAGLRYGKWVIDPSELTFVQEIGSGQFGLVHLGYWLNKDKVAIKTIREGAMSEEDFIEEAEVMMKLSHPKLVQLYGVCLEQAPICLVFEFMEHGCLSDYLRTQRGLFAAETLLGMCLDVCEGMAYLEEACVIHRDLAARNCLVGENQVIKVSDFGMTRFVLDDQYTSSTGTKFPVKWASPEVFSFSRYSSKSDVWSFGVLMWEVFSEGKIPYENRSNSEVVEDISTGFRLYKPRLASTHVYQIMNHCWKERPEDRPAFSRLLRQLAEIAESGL
Method in brief: (§2)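 GST/His-fusion kinases, E. coli or High Five expressed, affinity purified; 33P-ATP, plate-coated poly(Glu,Tyr) 4:1 or poly(Arg,Ser) 3:1; 0.5% H3PO4 wash, scintillant, LSC.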

EGFR = target: T4, EGFR (Homo sapiens, UniProt P00533); test: Kinase inhibition assay (33P transfer), EGFR; conditions: Table 2, class symbols A-E; read-out: EGFR-1
T4 construct: Kinases are expressed as either kinase domains or full length constructs; made in house
Method in brief: as §2

ErbB2 = target: T5, ErbB2 (Homo sapiens, UniProt P04626); test: Kinase inhibition assay (33P transfer), ErbB2; conditions: read-out: ErbB2-2
T5 construct: Kinases are expressed as either kinase domains or full length constructs; made in house
T5 sequence (P04626 23-1255, species assumed): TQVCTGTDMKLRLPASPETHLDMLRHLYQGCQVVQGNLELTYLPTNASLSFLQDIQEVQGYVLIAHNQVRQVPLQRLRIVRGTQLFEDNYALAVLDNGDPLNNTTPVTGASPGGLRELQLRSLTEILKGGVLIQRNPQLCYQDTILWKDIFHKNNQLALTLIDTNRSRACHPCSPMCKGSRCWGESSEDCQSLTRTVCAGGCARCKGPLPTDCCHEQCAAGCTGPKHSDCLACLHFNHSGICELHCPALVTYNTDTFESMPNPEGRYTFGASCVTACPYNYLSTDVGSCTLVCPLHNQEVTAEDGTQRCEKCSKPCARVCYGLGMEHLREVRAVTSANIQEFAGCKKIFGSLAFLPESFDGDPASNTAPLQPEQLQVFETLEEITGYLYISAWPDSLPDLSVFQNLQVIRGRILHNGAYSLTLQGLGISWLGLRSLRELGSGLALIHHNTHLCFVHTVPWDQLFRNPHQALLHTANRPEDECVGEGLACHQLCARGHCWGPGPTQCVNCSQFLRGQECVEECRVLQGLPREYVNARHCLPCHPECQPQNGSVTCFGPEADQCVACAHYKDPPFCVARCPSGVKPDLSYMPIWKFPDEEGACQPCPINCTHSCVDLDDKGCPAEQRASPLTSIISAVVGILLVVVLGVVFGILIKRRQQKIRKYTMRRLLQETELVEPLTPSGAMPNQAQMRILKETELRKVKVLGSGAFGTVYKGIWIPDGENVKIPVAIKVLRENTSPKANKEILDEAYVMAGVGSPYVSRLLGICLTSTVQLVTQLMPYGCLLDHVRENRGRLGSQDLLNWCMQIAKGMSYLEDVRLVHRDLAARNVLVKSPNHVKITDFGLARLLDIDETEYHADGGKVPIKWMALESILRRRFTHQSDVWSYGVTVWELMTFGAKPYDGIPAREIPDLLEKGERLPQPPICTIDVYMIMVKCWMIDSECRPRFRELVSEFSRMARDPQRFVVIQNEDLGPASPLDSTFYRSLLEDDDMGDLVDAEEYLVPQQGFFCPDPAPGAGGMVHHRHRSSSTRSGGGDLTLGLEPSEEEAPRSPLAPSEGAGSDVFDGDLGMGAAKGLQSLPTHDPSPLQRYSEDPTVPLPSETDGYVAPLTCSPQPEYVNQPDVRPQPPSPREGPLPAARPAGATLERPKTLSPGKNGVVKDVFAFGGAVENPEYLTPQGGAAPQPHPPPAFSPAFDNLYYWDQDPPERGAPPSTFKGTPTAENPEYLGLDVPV
Method in brief: as §2

Kdr = target: T6, Kdr (Homo sapiens, UniProt P35968); test: Kinase inhibition assay (33P transfer), Kdr; conditions: Table 3, class symbols; read-out: KDR-1
T6 construct: Kinases are expressed as either kinase domains or full length constructs; made in house
Method in brief: as §1

c-Met = target: T7, c-Met (Homo sapiens, UniProt P08581); test: Kinase inhibition assay (33P transfer), c-Met; conditions: Table 2, class symbols A-E; read-out: Met-1
T7 construct: Kinases are expressed as either kinase domains or full length constructs; made in house
T7 sequence (P08581 25-1390): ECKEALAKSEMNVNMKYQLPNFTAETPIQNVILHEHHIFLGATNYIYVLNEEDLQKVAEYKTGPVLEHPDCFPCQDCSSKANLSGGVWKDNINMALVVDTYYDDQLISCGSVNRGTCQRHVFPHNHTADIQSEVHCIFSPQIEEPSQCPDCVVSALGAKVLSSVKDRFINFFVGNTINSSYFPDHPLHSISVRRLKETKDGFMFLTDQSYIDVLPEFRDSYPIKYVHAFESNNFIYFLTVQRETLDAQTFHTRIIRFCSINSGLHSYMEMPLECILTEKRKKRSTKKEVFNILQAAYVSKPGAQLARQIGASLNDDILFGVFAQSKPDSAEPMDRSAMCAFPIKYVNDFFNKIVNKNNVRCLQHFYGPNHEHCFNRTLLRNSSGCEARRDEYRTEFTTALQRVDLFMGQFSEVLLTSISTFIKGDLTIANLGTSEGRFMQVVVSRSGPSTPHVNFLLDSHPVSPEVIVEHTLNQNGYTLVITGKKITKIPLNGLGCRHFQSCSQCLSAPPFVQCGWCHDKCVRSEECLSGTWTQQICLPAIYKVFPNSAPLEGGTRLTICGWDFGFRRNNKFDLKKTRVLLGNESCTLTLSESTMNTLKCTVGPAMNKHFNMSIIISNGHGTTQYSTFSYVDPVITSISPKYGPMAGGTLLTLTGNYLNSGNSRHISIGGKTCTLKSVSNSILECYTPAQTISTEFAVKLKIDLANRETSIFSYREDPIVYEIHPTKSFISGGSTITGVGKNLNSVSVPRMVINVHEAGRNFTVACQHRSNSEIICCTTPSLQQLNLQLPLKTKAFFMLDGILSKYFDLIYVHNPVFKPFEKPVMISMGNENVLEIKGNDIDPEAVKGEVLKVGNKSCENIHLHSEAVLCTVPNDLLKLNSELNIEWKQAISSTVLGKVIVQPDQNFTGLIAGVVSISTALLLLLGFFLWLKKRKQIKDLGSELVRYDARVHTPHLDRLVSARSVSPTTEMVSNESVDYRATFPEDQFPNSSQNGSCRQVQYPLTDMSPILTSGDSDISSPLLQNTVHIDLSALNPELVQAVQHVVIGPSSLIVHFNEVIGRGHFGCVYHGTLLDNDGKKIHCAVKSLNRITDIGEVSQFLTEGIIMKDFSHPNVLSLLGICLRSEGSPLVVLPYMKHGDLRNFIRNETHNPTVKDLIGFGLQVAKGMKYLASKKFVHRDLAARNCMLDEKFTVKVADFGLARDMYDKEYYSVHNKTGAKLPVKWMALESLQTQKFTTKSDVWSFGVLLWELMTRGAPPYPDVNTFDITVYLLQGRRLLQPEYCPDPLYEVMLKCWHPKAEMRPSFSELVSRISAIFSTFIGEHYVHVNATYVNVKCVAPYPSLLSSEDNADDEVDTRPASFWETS
Method in brief: as §2

AKT = target: T8, AKT (Homo sapiens, UniProt Q9Y243); test: Kinase inhibition assay (33P transfer), AKT; conditions: Table 2, class symbols A-E; read-out: AKT3-1
T8 construct: Kinases are expressed as either kinase domains or full length constructs; made in house
T8 sequence (Q9Y243 whole entry, the tested form may be a part): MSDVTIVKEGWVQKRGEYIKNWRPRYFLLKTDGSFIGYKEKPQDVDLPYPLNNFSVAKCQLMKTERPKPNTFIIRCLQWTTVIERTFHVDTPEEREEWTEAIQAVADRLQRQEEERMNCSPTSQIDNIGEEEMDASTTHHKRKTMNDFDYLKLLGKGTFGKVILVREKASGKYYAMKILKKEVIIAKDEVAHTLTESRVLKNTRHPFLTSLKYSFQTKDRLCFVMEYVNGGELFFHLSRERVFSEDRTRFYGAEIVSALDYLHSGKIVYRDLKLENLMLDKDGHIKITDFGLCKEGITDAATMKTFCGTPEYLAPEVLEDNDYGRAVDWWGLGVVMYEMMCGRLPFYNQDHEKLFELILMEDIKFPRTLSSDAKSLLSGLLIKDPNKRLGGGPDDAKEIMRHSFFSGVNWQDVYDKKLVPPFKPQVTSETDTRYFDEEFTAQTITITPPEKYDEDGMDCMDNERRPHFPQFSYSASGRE
Method in brief: as §1

IGFR-1 = target: T9, IGFR-1 (Homo sapiens, UniProt P08069); test: Kinase inhibition assay (33P transfer), IGFR-1; conditions: Table 2, class symbols A-E
T9 construct: Kinases are expressed as either kinase domains or full length constructs; made in house

PDGFRB = target: T10, PDGFRB (Homo sapiens, UniProt P09619); test: Kinase inhibition assay (33P transfer), PDGFRB; conditions: read-out: PDGFRB-1
T10 construct: Kinases are expressed as either kinase domains or full length constructs; made in house
T10 sequence (P09619 33-1106, species assumed): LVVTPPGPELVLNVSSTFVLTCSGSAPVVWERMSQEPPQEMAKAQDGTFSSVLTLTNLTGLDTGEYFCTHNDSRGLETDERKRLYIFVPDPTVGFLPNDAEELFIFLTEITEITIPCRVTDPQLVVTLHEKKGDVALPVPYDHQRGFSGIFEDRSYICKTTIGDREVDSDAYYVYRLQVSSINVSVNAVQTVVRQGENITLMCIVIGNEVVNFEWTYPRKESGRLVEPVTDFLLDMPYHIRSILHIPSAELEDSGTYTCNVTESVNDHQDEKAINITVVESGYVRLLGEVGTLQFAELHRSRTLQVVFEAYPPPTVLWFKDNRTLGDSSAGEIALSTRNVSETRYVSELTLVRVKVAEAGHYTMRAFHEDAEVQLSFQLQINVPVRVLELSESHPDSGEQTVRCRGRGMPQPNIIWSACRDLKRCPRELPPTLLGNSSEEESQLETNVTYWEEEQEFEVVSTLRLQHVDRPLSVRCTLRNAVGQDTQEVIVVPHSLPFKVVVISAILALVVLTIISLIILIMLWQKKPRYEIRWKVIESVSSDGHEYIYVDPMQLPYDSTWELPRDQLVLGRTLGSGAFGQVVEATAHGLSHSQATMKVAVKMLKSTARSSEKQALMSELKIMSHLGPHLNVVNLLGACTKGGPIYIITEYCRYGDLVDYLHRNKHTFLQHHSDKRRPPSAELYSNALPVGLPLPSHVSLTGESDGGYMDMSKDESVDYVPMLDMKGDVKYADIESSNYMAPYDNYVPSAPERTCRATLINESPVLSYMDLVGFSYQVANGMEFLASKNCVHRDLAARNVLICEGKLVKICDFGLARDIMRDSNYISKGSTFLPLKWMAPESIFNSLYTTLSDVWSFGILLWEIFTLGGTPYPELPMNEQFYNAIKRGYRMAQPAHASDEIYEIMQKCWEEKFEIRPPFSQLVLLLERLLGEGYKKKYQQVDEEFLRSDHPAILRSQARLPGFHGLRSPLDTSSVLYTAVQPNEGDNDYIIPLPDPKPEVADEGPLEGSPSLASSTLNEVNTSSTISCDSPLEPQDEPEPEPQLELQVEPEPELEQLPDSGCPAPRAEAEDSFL

T1 sequence (P06239 whole entry, species assumed, the tested form may be a part): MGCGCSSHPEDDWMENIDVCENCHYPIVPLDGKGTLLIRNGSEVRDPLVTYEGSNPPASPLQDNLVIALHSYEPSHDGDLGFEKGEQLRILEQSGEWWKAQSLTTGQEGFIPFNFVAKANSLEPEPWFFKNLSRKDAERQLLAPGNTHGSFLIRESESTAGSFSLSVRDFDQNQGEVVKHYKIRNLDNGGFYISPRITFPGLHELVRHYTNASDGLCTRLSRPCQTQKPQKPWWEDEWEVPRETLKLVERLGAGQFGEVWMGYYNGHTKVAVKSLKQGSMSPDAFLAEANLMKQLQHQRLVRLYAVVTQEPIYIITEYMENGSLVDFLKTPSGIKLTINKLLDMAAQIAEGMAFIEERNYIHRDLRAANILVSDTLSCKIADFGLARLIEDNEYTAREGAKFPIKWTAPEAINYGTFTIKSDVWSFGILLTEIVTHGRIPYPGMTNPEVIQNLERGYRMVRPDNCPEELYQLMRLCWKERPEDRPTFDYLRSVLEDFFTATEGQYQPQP

IC50 (Lck) | IC50 (Zap-70) | IC50 (Itk) | IC50 (EGFR) | IC50 (ErbB2) | IC50 (Kdr) | IC50 (c-Met) | IC50 (AKT) | IC50 (IGFR-1) | IC50 (PDGFRB) | SMILES
> 11.7 µM | > 11.7 µM | 9.12 to 11.7 µM | 1.04 to 6.25 µM | > 11.7 µM | 1.04 to 6.25 µM | 1.04 to 6.25 µM | > 11.7 µM | > 11.7 µM | 1.04 to 6.25 µM | Cc1ccc(Cl)cc1Nc1ncnc(N2c3ccc(F)cc3CCC2C)n1 (stereo not shown) [Compound 644]
0.856 to 5.13 µM | > 9.62 µM | > 9.62 µM | < 0.856 µM | < 0.856 µM | 0.856 to 5.13 µM | 7.49 to 9.62 µM | > 9.62 µM | > 9.62 µM | 0.856 to 5.13 µM | COc1ccc(Nc2ncnc(N(C)c3ccc4c(cnn4Cc4ccccc4)c3)n2)cc1OC [Compound 669]
> 10.8 µM | > 10.8 µM | > 10.8 µM | > 10.8 µM | > 10.8 µM | > 10.8 µM | > 10.8 µM | > 10.8 µM | > 10.8 µM | 8.43 to 10.8 µM | CN(c1cccc(Cl)c1)c1ncnc(Nc2cc(Cl)c(Cl)c(Cl)c2)n1 [Compound 804]
> 9.56 µM | > 9.56 µM | > 9.56 µM | > 9.56 µM | > 9.56 µM | 0.85 to 5.1 µM | 0.85 to 5.1 µM | > 9.56 µM | > 9.56 µM | > 9.56 µM | COc1cc(Nc2ncnc(-c3cccnc3Nc3ccc4c(c3)CCC4)n2)cc(OC)c1OC [Compound 830]
0.927 to 5.56 µM | > 10.4 µM | > 10.4 µM | < 0.927 µM | 0.927 to 5.56 µM | < 0.927 µM | 5.56 to 8.11 µM | 8.11 to 10.4 µM | > 10.4 µM | 8.11 to 10.4 µM | CCN(c1ncnc(Nc2cc(OC)c(OC)c(OC)c2)n1)c1cccc2ccccc12 [Compound 634]
> 11.4 µM | > 11.4 µM | > 11.4 µM | 1.01 to 6.06 µM | > 11.4 µM | > 11.4 µM | > 11.4 µM | > 11.4 µM | > 11.4 µM | > 11.4 µM | CN(c1cccc(Cl)c1)c1ncnc(Nc2ccc(OC(F)(F)F)cc2)n1 [Compound 874]
> 9.34 µM | > 9.34 µM | > 9.34 µM | > 9.34 µM | > 9.34 µM | > 9.34 µM | > 9.34 µM | > 9.34 µM | > 9.34 µM | > 9.34 µM | COc1cccc(CCNc2ncnc(Nc3ccc4c(cnn4Cc4ccccc4)c3)n2)c1OC [Compound 873]
< 0.968 µM | > 10.9 µM | > 10.9 µM | 0.968 to 5.81 µM | 0.968 to 5.81 µM | < 0.968 µM | > 10.9 µM | > 10.9 µM | > 10.9 µM | < 0.968 µM | COc1cc(Nc2ncnc(Nc3ccc(OCCO)cc3)n2)cc(OC)c1OC [Compound 636]
> 10.4 µM | > 10.4 µM | > 10.4 µM | > 10.4 µM | 0.927 to 5.56 µM | 8.11 to 10.4 µM | > 10.4 µM | > 10.4 µM | > 10.4 µM | 0.927 to 5.56 µM | COC(=O)c1ccc(-c2cc(Nc3ncnc(NCc4ccccc4OC)n3)[nH]n2)cc1 [Compound 815]
0.935 to 5.61 µM | > 10.5 µM | > 10.5 µM | < 0.935 µM | 5.61 to 8.18 µM | < 0.935 µM | < 0.935 µM | > 10.5 µM | > 10.5 µM | < 0.935 µM | COc1cc(Nc2ncnc(N3CCCc4cc(Cl)ccc43)n2)cc(OC)c1OC [Compound 639]
> 9.1 µM | > 9.1 µM | > 9.1 µM | > 9.1 µM | 0.809 to 4.85 µM | < 0.809 µM | > 9.1 µM | > 9.1 µM | 4.85 to 7.08 µM | 0.809 to 4.85 µM | COc1cc(Nc2ncnc(-c3cccnc3NCc3cccc4ccccc34)n2)cc(OC)c1OC [Compound 844]

Second part, the molecule before the results:

SMILES | IC50 (Lck) | IC50 (Zap-70) | IC50 (Itk) | IC50 (EGFR) | IC50 (ErbB2) | IC50 (Kdr) | IC50 (c-Met) | IC50 (AKT) | IC50 (IGFR-1) | IC50 (PDGFRB)
c1coc(-c2cc(Nc3ncnc(Nc4ccc(-c5csnn5)cc4)n3)n[nH]2)c1 [Compound 891] | 5.95 to 8.68 µM | 0.991 to 5.95 µM | 0.991 to 5.95 µM | 0.991 to 5.95 µM | < 0.991 µM | < 0.991 µM | < 0.991 µM | 0.991 to 5.95 µM | < 0.991 µM | < 0.991 µM
O=C(O)c1cccc(Nc2ncnc(-n3c(NCc4ccccc4)nc4ccccc43)n2)c1 [Compound 1069] | > 10.3 µM | > 10.3 µM | > 10.3 µM | < 0.914 µM | < 0.914 µM | < 0.914 µM | > 10.3 µM | > 10.3 µM | > 10.3 µM | < 0.914 µM
Fc1ccc(CNc2ncccc2-c2ncnc(Nc3cccc(Cn4ccnn4)c3)n2)cc1 [Compound 1102] | > 9.92 µM | 7.72 to 9.92 µM | > 9.92 µM | 5.29 to 7.72 µM | > 9.92 µM | < 0.882 µM | > 9.92 µM | > 9.92 µM | > 9.92 µM | < 0.882 µM
CN(c1cccc(Cl)c1)c1ncnc(Nc2cccc(Cn3ccnn3)c2)n1 [Compound 678] | 1.02 to 6.11 µM | > 11.5 µM | 1.02 to 6.11 µM | < 1.02 µM | < 1.02 µM | 1.02 to 6.11 µM | < 1.02 µM | > 11.5 µM | > 11.5 µM | < 1.02 µM
c1ccc(Cn2ncc3cc(Nc4ncnc(Nc5ccc6ncsc6c5)n4)ccc32)cc1 [Compound 900] | 0.888 to 5.33 µM | 5.33 to 7.77 µM | 0.888 to 5.33 µM | < 0.888 µM | < 0.888 µM | < 0.888 µM | < 0.888 µM | < 0.888 µM | 0.888 to 5.33 µM | 0.888 to 5.33 µM
c1ccc(-c2cc(Nc3ncnc(Nc4cccc(-c5cnco5)c4)n3)[nH]n2)cc1 [Compound 1010] | 1.01 to 6.05 µM | > 11.4 µM | 6.05 to 8.83 µM | 1.01 to 6.05 µM | 1.01 to 6.05 µM | 1.01 to 6.05 µM | < 1.01 µM | 1.01 to 6.05 µM | < 1.01 µM | 1.01 to 6.05 µM
COc1cc(Nc2ncnc(Nc3cc(-c4ccco4)[nH]n3)n2)cc(C(F)(F)F)c1 [Compound 821] | 0.958 to 5.75 µM | 0.958 to 5.75 µM | 0.958 to 5.75 µM | 0.958 to 5.75 µM | 0.958 to 5.75 µM | 0.958 to 5.75 µM | 0.958 to 5.75 µM | 5.75 to 8.39 µM | 0.958 to 5.75 µM | 0.958 to 5.75 µM
C#Cc1cccc(Nc2ncnc(Nc3cc(-c4ccccc4)n[nH]3)n2)c1 [Compound 1008] | 1.13 to 6.79 µM | > 12.7 µM | 1.13 to 6.79 µM | 1.13 to 6.79 µM | > 12.7 µM | 1.13 to 6.79 µM | 1.13 to 6.79 µM | > 12.7 µM | < 1.13 µM | > 12.7 µM
